Experimental data: patent publication US10799530B1, “Composition and method for the prevention and treatment of obesity” (Vector Vitale IP LLC, priority 2019, dated 2020)
Where “and” joins values, the source holds several entries; their conditions need not be identical. Equal entries are not always repeated.

How the values were obtained:
Type in all cases: in vivo
rats [1] = experiment: Glucose tolerance test; details: fast overnight, one value per animal
Experimental: A glucose tolerance test was performed to determine a potential effect of zinc isotope on the dynamics of glucose concentration in the blood flow. Experimental procedure: laboratory animals are given intragastric injections of either normal saline solution or zinc in saline solution (5 mg/kg) in a volume of 2 ml. After that, 60 minutes after the aforementioned injections, the basal level of glucose is measured and a glucose solution is injected in an amount of 3 g/kg in a volume of 2 ml using the same route of administration. The blood glucose levels are measured again 60 minutes after injecting the glucose solution.

rats [2] = experiment: Serum insulin level after intraperitoneal administration; details: intact rats; 3750 μg of zinc per 1 kg intraperitoneally every other day, 7 injections
Experimental: Animals are placed in cages, 4 per cage, with free access to food/water. […] Administration is performed every other day, in the amount of 7 injections per animal (intraperitoneal method of drug administration).
Samples in volume of 100 μl were incubated in microplate wells at 4° C. overnight. […] Non-specific binding sites were blocked with a 5% fat-free milk blocking solution and incubated for 1 hour at 37° C. After washing, the separate wells of the microplate were loaded with primary rabbit anti-insulin antibodies and incubated for 1 hour at 37° C. After incubation, the microplate wells were washed and loaded with appropriate secondary antibodies conjugated to horseradish peroxidase and incubated for another 1 hour at 37° C. […] The optical density was measured at 492 nm. The insulin concentrations were calculated using the calibration curve generated under the given conditions and human insulin of known concentration.)

rats [3] = experiment: Area of islets of Langerhans after intraperitoneal administration; details: intact rats, day 7 after the last administration
Experimental: Animals are placed in cages, 4 per cage, with free access to food/water. […] Administration is performed every other day, in the amount of 7 injections per animal (intraperitoneal method of drug administration). The dose of the drug injected to each animal was calculated on the basis of the ratio: 3750 μg of zinc per 1 kg of animal body weight.

rats [4] = experiment: Body weight, food and water consumption after intraperitoneal administration; details: intact rats; 3750 μg of zinc per 1 kg intraperitoneally every other day, 7 injections
Experimental: The current dose was calculated by zinc.

Compound | Glucose tolerance test, 60 min (1 h after glucose administration) (rats [1]; effector dose 5 mg/kg in 2 ml, glucose 3 g/kg body weight in 2 ml) | Glucose tolerance test, 0 min (1 h after effector administration) (rats [1]; effector dose 5 mg/kg in a volume of 2 ml) | Serum insulin levels at day 7 after the withdrawal (rats [2]) | Serum insulin levels on the first day after the drug withdrawal (rats [2]) | Area of islets of Langerhans compared to the control group and the zinc acetate group (rats [3]) | Body weight of rats (rats [4])
CC(=O)[O-].CC(=O)[O-].[Zn+2] [Zn acetate, Zinc acetate, reference compound] | also dropped, though not so strongly and 7.2 and 6.9 and 7.3 and 6.8 | 4.6 and 5.2 (2×) and 4.9 and 5.1 | drop in the insulin levels to the value of those of intact/control animals | significant increase |  | 
zinc asparaginate [^64Zne] |  |  | significant increase in the insulin levels | slightly higher than in the group of intact animals | significant increase in the islet area | significant increase in the body weight
